Test results as given in patent US11806342B2, “Diiodohydroxyquinoline for the treatment of clostridium difficile infection” (Purdue Research Foundation, priority 2019, dated 2023).
Values after ≈ are worked out from the molar mass of the structure shown.

What was measured:
Test in all cases: MIC and MBC, broth microdilution
Type in all cases: cell-based, Clostridium difficile
C. difficile ATCC 1801 = settings: Clostridioides difficile, ATCC1801, C. difficile ATCC 1801
Protocol: (§1) Antibacterial activity of Diiodohydroxyquinoline against a wide panel of Clostridium difficile strains. […] MIC50 and MIC90 are the minimum concentration of each agent that inhibited growth of 50% and 90% of the tested isolates, respectively. The minimum bactericidal concentration (MBC) of these drugs was tested by plating 5 μL from wells with no growth onto BHIS agar plates. The MBC was categorized as the lowest concentration that reduced bacterial growth by 99.9% MIC50 and MIC90 are the minimum concentration of each agent that inhibited the growth of 50% and 90% of the tested isolates, respectively. The minimum bactericidal concentration (MBC) of these drugs was tested by plating 5 μL from wells with no growth onto BHIS agar plates. The MBC was categorized as the lowest concentration that reduced bacterial growth by 99.9% [29-31].

C. difficile ATCC 43255 = settings: Clostridioides difficile, ATCC43255, C. difficile ATCC 43255
Protocol: as §1

C. difficile HM-745 = settings: Clostridioides difficile, HM745, C. difficile HM-745
Protocol: as §1

C. difficile I10 = settings: Clostridioides difficile, C. difficile I10
Protocol: as §1

C. difficile I11 = settings: Clostridioides difficile, C. difficile I11
Protocol: as §1

C. difficile I13 = settings: Clostridioides difficile, C. difficile I13
Protocol: as §1

C. difficile I9 = settings: Clostridioides difficile, C. difficile I9
Protocol: as §1

C. difficile NR-49278 = settings: Clostridioides difficile, NR49278, C. difficile NR-49278
Protocol: as §1

C. difficile NR-49285 = settings: Clostridioides difficile, NR49285, C. difficile NR-49285
Protocol: as §1

C. difficile NR-49288 = settings: Clostridioides difficile, NR49288, C. difficile NR-49288
Protocol: as §1

C. difficile P15 = settings: Clostridioides difficile, C. difficile P15
Protocol: as §1

C. difficile P19 = settings: Clostridioides difficile, C. difficile P19
Protocol: as §1

C. difficile P20 = settings: Clostridioides difficile, C. difficile P20
Protocol: as §1

C. difficile P30 = settings: Clostridioides difficile, C. difficile P30
Protocol: as §1

C. difficile P3 = settings: Clostridioides difficile, C. difficile P3
Protocol: as §1

C. difficile P5 = settings: Clostridioides difficile, C. difficile P5
Protocol: as §1

C. difficile ATCC 9689 = settings: Clostridioides difficile, ATCC9689, C. difficile ATCC 9689
Outline: (§2)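 After the MIC read, contents of clear wells are spotted onto BHIS agar plates. The bactericidal endpoint is the lowest drug level achieving 99.9% growth reduction; MIC50 and MIC90 denote concentrations inhibiting half and nine-tenths of the isolate panel.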

[1] = system: C. difficile ATCC BAA-1870; settings: Clostridioides difficile, ATCCBAA1870, C. difficile ATCC BAA-1870
Outline: as §2

C. difficile HM-89 = settings: Clostridioides difficile, HM89, C. difficile HM-89
Outline: as §2

C. difficile I2 = settings: Clostridioides difficile, C. difficile I2
Outline: as §2

C. difficile I4 = settings: Clostridioides difficile, C. difficile I4
Outline: as §2

C. difficile NR-49277 = settings: Clostridioides difficile, NR49277, C. difficile NR-49277
Outline: as §2

C. difficile NR-49281 = settings: Clostridioides difficile, NR49281, C. difficile NR-49281
Outline: as §2

C. difficile NR-49290 = settings: Clostridioides difficile, NR49290, C. difficile NR-49290
Outline: as §2

C. difficile P11 = settings: Clostridioides difficile, C. difficile P11
Outline: as §2

C. difficile P13 = settings: Clostridioides difficile, C. difficile P13
Outline: as §2

C. difficile P2 = settings: Clostridioides difficile, C. difficile P2
Outline: as §2

Oc1c(I)cc(I)c2cccnc12 [DIHQ, 5,7-diiodoquinolin-8-ol]
MBC (C. difficile ATCC 1801; read-out: MBC): 4 µg/mL (≈ 10.1 µM)
MIC (C. difficile ATCC 1801; read-out: MIC): 2 µg/mL (≈ 5.04 µM)
MBC (C. difficile ATCC 43255; read-out: MBC): 0.5 µg/mL (≈ 1.26 µM)
MIC (C. difficile ATCC 43255; read-out: MIC): 0.5 µg/mL (≈ 1.26 µM)
MBC (C. difficile HM-745; read-out: MBC): 1 µg/mL (≈ 2.52 µM)
MIC (C. difficile HM-745; read-out: MIC): 1 µg/mL (≈ 2.52 µM)
MBC (C. difficile I10; read-out: MBC): 1 µg/mL (≈ 2.52 µM)
MIC (C. difficile I10; read-out: MIC): 1 µg/mL (≈ 2.52 µM)
MBC (C. difficile I11; read-out: MBC): 1 µg/mL (≈ 2.52 µM)
MIC (C. difficile I11; read-out: MIC): 1 µg/mL (≈ 2.52 µM)
MBC (C. difficile I13; read-out: MBC): 2 µg/mL (≈ 5.04 µM)
MIC (C. difficile I13; read-out: MIC): 2 µg/mL (≈ 5.04 µM)
MBC (C. difficile I9; read-out: MBC): 0.06 µg/mL (≈ 0.151 µM)
MIC (C. difficile I9; read-out: MIC): 0.06 µg/mL (≈ 0.151 µM)
MBC (C. difficile NR-49278; read-out: MBC): 0.5 µg/mL (≈ 1.26 µM)
MIC (C. difficile NR-49278; read-out: MIC): 0.25 µg/mL (≈ 0.63 µM)
MBC (C. difficile NR-49285; read-out: MBC): 1 µg/mL (≈ 2.52 µM)
MIC (C. difficile NR-49285; read-out: MIC): 1 µg/mL (≈ 2.52 µM)
MBC (C. difficile NR-49288; read-out: MBC): 0.5 µg/mL (≈ 1.26 µM)
MIC (C. difficile NR-49288; read-out: MIC): 0.25 µg/mL (≈ 0.63 µM)
MBC (C. difficile P15; read-out: MBC): 1 µg/mL (≈ 2.52 µM)
MIC (C. difficile P15; read-out: MIC): 1 µg/mL (≈ 2.52 µM)
MBC (C. difficile P19; read-out: MBC): 1 µg/mL (≈ 2.52 µM)
MIC (C. difficile P19; read-out: MIC): 0.5 µg/mL (≈ 1.26 µM)
MBC (C. difficile P20; read-out: MBC): 1 µg/mL (≈ 2.52 µM)
MIC (C. difficile P20; read-out: MIC): 1 µg/mL (≈ 2.52 µM)
MBC (C. difficile P30; read-out: MBC): 0.5 µg/mL (≈ 1.26 µM)
MIC (C. difficile P30; read-out: MIC): 0.5 µg/mL (≈ 1.26 µM)
MBC (C. difficile P3; read-out: MBC): 2 µg/mL (≈ 5.04 µM)
MIC (C. difficile P3; read-out: MIC): 2 µg/mL (≈ 5.04 µM)
MBC (C. difficile P5; read-out: MBC): 4 µg/mL (≈ 10.1 µM)
MIC (C. difficile P5; read-out: MIC): 2 µg/mL (≈ 5.04 µM)
MBC (C. difficile ATCC 9689; read-out: MBC): 0.25 µg/mL (≈ 0.63 µM)
MIC (C. difficile ATCC 9689; read-out: MIC): 0.125 µg/mL (≈ 0.315 µM)
MBC ([1]; read-out: MBC): 1 µg/mL (≈ 2.52 µM)
MIC ([1]; read-out: MIC): 1 µg/mL (≈ 2.52 µM)
MBC (C. difficile HM-89; read-out: MBC): 1 µg/mL (≈ 2.52 µM)
MIC (C. difficile HM-89; read-out: MIC): 1 µg/mL (≈ 2.52 µM)
MBC (C. difficile I2; read-out: MBC): 2 µg/mL (≈ 5.04 µM)
MIC (C. difficile I2; read-out: MIC): 2 µg/mL (≈ 5.04 µM)
MBC (C. difficile I4; read-out: MBC): 1 µg/mL (≈ 2.52 µM)
MIC (C. difficile I4; read-out: MIC): 1 µg/mL (≈ 2.52 µM)
MBC (C. difficile NR-49277; read-out: MBC): 0.5 µg/mL (≈ 1.26 µM)
MIC (C. difficile NR-49277; read-out: MIC): 0.5 µg/mL (≈ 1.26 µM)
MBC (C. difficile NR-49281; read-out: MBC): 0.25 µg/mL (≈ 0.63 µM)
MIC (C. difficile NR-49281; read-out: MIC): 0.25 µg/mL (≈ 0.63 µM)
MBC (C. difficile NR-49290; read-out: MBC): 0.5 µg/mL (≈ 1.26 µM)
MIC (C. difficile NR-49290; read-out: MIC): 0.25 µg/mL (≈ 0.63 µM)
MBC (C. difficile P11; read-out: MBC): 0.25 µg/mL (≈ 0.63 µM)
MIC (C. difficile P11; read-out: MIC): 0.25 µg/mL (≈ 0.63 µM)
MBC (C. difficile P13; read-out: MBC): 0.5 µg/mL (≈ 1.26 µM)
MIC (C. difficile P13; read-out: MIC): 0.5 µg/mL (≈ 1.26 µM)
MBC (C. difficile P2; read-out: MBC): 0.25 µg/mL (≈ 0.63 µM)
MIC (C. difficile P2; read-out: MIC): 0.25 µg/mL (≈ 0.63 µM)
